From US4656249A, “Peptides with relaxin activity” (Howard Florey Institute of Experimental Physiology and …, priority 1982, dated 1987)
Positions of bridges follow the written chain, without caps; N, C: chain ends. Residues, ends and D or L forms follow the SMILES beside them. Chains are numbered I, II in the order given. No end group written: not given here.

Key:
[1] = system: rat uterine contractility; assay: rat uterine contractility assay (bioassay of recombined relaxin peptides); type: cell-based; settings: for Recombination Yield (by BIOASSAY), actual combination yield based on the B chain: combination of A and B chains, yield measured by bioassay; for Recombination Yield (by BIOASSAY), recalculated on the basis of 100% yield for the recombined natural A22 and B28 chains: relative to recombined natural A22 + B28 = 100%
Method: The recombination of the relaxin peptide chains was monitored by HPLC and radioimmunoassay using an antibody raised to native porcine relaxin A22B29 and I125 Bolton-Hunter labelled A22B29 tracer (16). The biological activity of the recombined products was assessed using the rat uterine contractility assay (18).
The biological activity of the synthetic relaxin peptides was tested in the rat uterine contractility assay (18).

[2] = solubility behaviour of relaxin B chain peptides in aqueous solution; type: physicochemical; settings: crude synthetic B chain
Text: We have carried out research into the chemical synthesis of relaxin and its structural analogues as part of a systematic study of the structure-function relationships in the hormone molecule. The purified separate chains of pig relaxin have been obtained in approximately 10% yield (based on crude). The major impurities in the synthetic peptides appear to have arisen through side-reactions of the cysteine residues occurring during the HF cleavage step. In more recent syntheses improved yields have been obtained using the HF stable S-ethyl mercapto protecting group for cysteine. […] Column chromatography on Sephadex, cellulose, polyamide or polystyrene resins results in virtually a complete loss of peptide by irreversible absorption (16). These properties have made purification of synthetic relaxin B chain peptides and their coupling to A chain particularly difficult.
As shown by FIG. 3(c), the CD spectra indicate that shortening to 25 residues results in a change of from the beta-configuration to an unordered conformation. This conformational change is reflected in an enhanced solubility of the peptide in aqueous solution, a loss of the adsorptive behaviour and an improvement in the combination yield with the A chain. Using the above-described method the combination yield rises to 10%. […]

Molecule: CC[C@H](C)[C@@H]1NC(=O)[C@H](CC(=O)O)NC(=O)[C@H](CCCCN)NC(=O)[C@H](CCCNC(=N)N)NC(=O)[C@H]([C@@H](C)CC)NC(=O)[C@@H]2CSSC[C@H](NC(=O)[C@H](CCCCN)NC(=O)[C@H](CCC(=O)O)NC(=O)[C@H](CO)NC(=O)[C@@H](N)CC(C)C)C(=O)N[C@@H](CSSC[C@H](NC(=O)[C@H](C)NC(=O)[C@H](CCCCN)NC(=O)[C@@H](NC(=O)[C@H](Cc3ccccc3)NC(=O)[C@H](CC(=O)O)NC(=O)[C@H](CC(N)=O)NC(C)=O)[C@@H](C)CC)C(=O)NCC(=O)N[C@@H](CCCNC(=N)N)C(=O)N[C@@H](CCC(=O)O)C(=O)N[C@@H](CC(C)C)C(=O)N[C@@H](C(C)C)C(=O)N[C@@H](CCCNC(=N)N)C(=O)N[C@@H](CC(C)C)C(=O)N[C@@H](Cc3c[nH]c4ccccc34)C(=O)N[C@@H](C(C)C)C(=O)N[C@@H](CCC(=O)O)C(=O)N[C@@H]([C@@H](C)CC)C(=O)N[C@H](C(=O)NCC(N)=O)CSSC[C@@H](C(=O)O)NC(=O)[C@H](CC(C)C)NC(=O)[C@H](CCCNC(=N)N)NC(=O)[C@H](C)NC1=O)C(=O)N[C@@H](CCC(N)=O)C(=O)N[C@@H](C(C)C)C(=O)NCC(=O)N2 [SA (4-22) SB[N--acetyl](4-23)NH2] (I: Ac-NDFIKACGRELVRLWVEICG-NH2 / II: H-LSEKCCQVGCIRKDIARLC-OH; disulfide I:7-II:6, I:19-II:19, II:5-II:10)
- Recombination Yield (by BIOASSAY), actual combination yield based on the B chain [1]: 1.3%
- Recombination Yield (by BIOASSAY), recalculated on the basis of 100% yield for the recombined natural A22 and B28 chains [1]: 5%

Molecule: B(1-29): synthetic porcine relaxin B chain of 29 residues (B chain of CMa')
- pH at which the peptide is soluble [2]: > 5.5

Molecule: I: RMTLSEKCCQVGCIRKDIARLC / II: Ac-NDFIKACGRELVRLWVEICG-NH2 (disulfide I:8-I:13, I:9-II:7, I:22-II:19) [SA (1-22) SB[N--acetyl](4-23)NH2]
- Recombination Yield (by BIOASSAY), actual combination yield based on the B chain [1]: 2.4%
- Recombination Yield (by BIOASSAY), recalculated on the basis of 100% yield for the recombined natural A22 and B28 chains [1]: 10%
